# Literature values, collected in patent US20060009360A1, “New adjuvant composition” (priority 2004, published 2006).
# Settings: glyphosate in acid form
smiles,measurement,value
"O=C(O)CNCP(=O)(O)O [glyphosate, N-(phosphonomethyl)glycine]",water solubility,about 1.2%
